Columns and labels:
[1] = test system: PRC2-mediated histone H3 methylation in Pfeiffer cells (EZH2 A677G); assay: Tri-Methyl Histone H3 (Lys 27) sandwich ELISA in Pfeiffer cells; type: cell-based; details: Homo sapiens, 96 hours incubation, H3K27me3 ELISA, read-out: IC50 (nM), Inhibition of EZH2-mediated Histone H3 Trimethylation
Description: The Pfeiffer cell line was established from a […] from a patient having metastatic diffuse large B-cell lymphoma (DLBCL). This cell line expresses a mutant form of the EZH2 enzyme (A677G) that results in enhanced EZH2 activity leading to increased methylation of histone H3 Lys27. Increased trimethylation of histone H3 Lys27 is believed to be implicated in tumorgenesis and poor clinical prognosis in lymphomas (McCabe et al., (2012) Nature 492:108-112).
Inhibition of PRC2-mediated histone H3 methylation by compounds of Formula (I) was measured by ELISA using a Tri-Methyl Histone H3 (Lys 27) Sandwich ELISA Kit (Cell Signaling Tech #7866C) in accordance with the manufacturer's instructions. Briefly, Pfeiffer cells were cultured in RPMI medium supplemented with 10% fetal bovine serum and 1% penicillin and 1% streptomycin in 96 well culture plates at 37° C. to a density of 8000 cells/90 μl/well and the cells were harvested. A series of 3-fold serial dilutions of each test compound of Formula (I) were prepared in RPMI medium and added to the cells at final concentrations ranging from […] to 0.15 nM. The plates were incubated at 37° C. for 96 hours.
After incubation, the cells were pelleted by centrifugation in a pre-cooled 4° C. rotor at 1,100 rpm for 10 min and the supernatant was removed by aspiration. The cell pellet was resuspended in 55 μl of Lysis Buffer (0.4M HCl) and incubated on ice with periodic shaking for 30 minutes. The lysed cells were subjected to centrifugation at 4,200 rpm for 10 min at 4° C. and the supernatant containing acid-soluble proteins was collected and the remainder discarded. The acid-soluble proteins were brought to a neutral pH by the addition of 20 μl of Neutralization Buffer (1 M Sodium phosphate, dibasic (pH 12.5), 2.5 mM DTT and 1 mM PMSF) and the neutralized lysates were analyzed by ELISA.
A 65 μl aliquot of each cell lysate was added to a well of a microwell strip, the microwells were sealed using tape and incubated either at 37° C. for two hours or at 4° C. overnight. After incubation, the tape was removed at the microwells were washed four times using 200 μl of 1× Wash Buffer. To each washed microwell, a 100 μl aliquot of an anti-trimethyl histone H3 Lys27 Detection Antibody solution was added and the microwells were incubated at 37° C. for one hour. The Detection Antibody solution was removed by aspiration and the wells were washed four times each using 200 μl of 1× Wash Buffer.
A 100 μl aliquot of an HRP-linked secondary antibody was added to each well, the wells were sealed with tape and incubated at 37° C. for 30 min. The HRP-linked secondary antibody solution was removed by aspiration and the wells were washed four times using 200 μl of 1× Wash Buffer. A 100 μl aliquot of a TMB substrate was added to each well, the wells were sealed with tape and incubated at 37° C. for 10 min or 25° C. for 30 min. The reaction was stopped by the addition of 100 μl aliquot of a STOP solution and the plate was shaken briefly. The degree of histone H3 trimethylation was determined using a spectrophotometric readout by measuring the absorbance at 450 nm and then calculating the amount of trimethylated histone H3. A=≤100 nM; B=>100 nM−≤500 nM; C=>500 nM and N.D.=not determined.

[2] = test system: Karpas 422 cells (EZH2 Y641N); assay: Karpas 422 cell viability (Cell Titre Glo); type: cell-based; details: Homo sapiens, CTG viability, Day 4, Day 7 or Day 11 (time point not given), read-out: IC50 (nM), Inhibiting Proliferation of Cells Expressing an Activating Mutant Form of EZH2
Method: Karpas 422 cell line is a human B cell non-Hodgkin's lymphoma cell line established from a patient having DLBCL. This EZH2 heterozygotic cell line expresses a mutant form of EZH2 enzyme (Y641N) that increases histone H3 methylation and this mutation has been implicated in the tumorgenesis of lymphomas, such as DLBCL.
Karpas 422 cells (PHE cat no., 06101702) were cultured in RPMI medium supplemented with 20% fetal bovine serum and 1% penicillin/1% streptomycin and plated at a density of 1000 cells/90 μl/well in 96 well white assay plates. A dose response curve for compounds of the present invention was determined by adding a 10 μl aliquot of stock solutions of varying concentrations of compounds to the same medium in each well, over a concentration range of 10 μM using 3-fold dilutions to a final concentration of 1.5 nM. The plates were incubated at 37° C. for predetermined time periods, Day 4, Day 7, or Day 11, and the viability of the cells was measured using a CTG assay kit (Cell Titre Glo; Promega cat. no G7573) on Day 4 and Day 7 in accordance with the manufacturer's instructions.
For the viability assay for the Day 11 plates, the plates were subjected to centrifugation at 1100 rpm for five minutes on Day 7 and the supernatant was removed by aspiration. The cells were resuspended in 90 μl aliquot of the appropriate growth medium lacking the compound followed by addition of 10 μl of a 10× stock of the same compound at the same concentration. The viability of the Day 11 cells was measured using the CTG assay kit described above in accordance with the manufacturer's instructions. The IC50 values for each compound at each predetermined time point were calculated using Graph pad PRISM software and the results are shown in Table 8. A=≤250 nM; B=[…]−≤500 nM; C=>500 nM and N.D.=not determined.

[3] = target: purified human, His-tagged PRC2 complex (Homo sapiens (Human), UniProt O75530); assay: Hot Spot HMT assay, inhibition of PRC2 enzymatic activity; type: biochemical; details: 10 nM PRC2 complex, 0.05 mg/ml core histone H3, 1 μM 3H-SAM, 1 hr at 30° C.; read-out: IC50, Inhibition of PRC2-mediated Enzymatic Activity
Method: Ten-point dose-response curves for compounds of the present invention were determined using a Hot Spot HMT assay (Reaction Biology Corp; see Horiuchi et al., Assay Drug Dev Technol. (2013) 4: 227-236 doi: 10.1089/adt.2012.480). The assay uses purified human, His-tagged PRC2 complex, including N-terminal His-tagged EZH2 enzyme, N-terminal Flag-tagged embryonic ectoderm development protein (EED), N-terminal His-tagged suppressor of zeste 12 (SUZ12), N-terminal His-tagged AEBP2, and N-terminal His-tagged RbAp48. In this assay, the transfer of the tritiated methyl group from radiolabeled S-adenosyl methionine (SAM) to purified core histone protein by EZH2 is quantitated after filtration to determine the activity of the core PRC2 complex in the presence and absence of compound.
Briefly, compounds of the present invention were solubilized in DMSO and a series of 10, three-fold serial dilutions were made for each compound in 15% DMSO. The initial starting concentration for the serial dilutions of each compound was 1.0 μM. Control samples lacking compound, EZH2 enzyme or various reaction components also were prepared and processed in parallel with compound test samples. SAH (S-(5-adenosyl)-L-homocysteine) was used as a positive control for assay validation.
An aliquot of each serial dilution of test compound was added to deep 384 well plate using Acoustic Technology instrument (Echo 550, LabCyte) containing reaction buffer (50 mM Tris-HCl (pH 8)), 0.01% Brij35, 1 mM EDTA, 1 mM DTT, 1 mM PMSF and 1% DMSO), 10 nM purified PRC2 complex and 0.05 mg/ml core histone H3 in a 5 μl volume. The reaction was mixed gently and then pre-incubated for 20 min at 30° C. The enzymatic reaction was initiated by adding 1 μM S-Adenosyl-L-[methyl-^3H]methionine and incubated for 1 hr at 30° C. After 1 hr, the reaction product was detected using a filter binding method and the amount of tritiated H3 core histone was quantitated using a scintillation counter. The IC50 value for each compound was determined from each 10-point dose-response curve using GraphPad Prism software and the results for compounds of present invention, including compounds of Formula (I) and Formula (II) are shown in Table 6. Key: A=<100 nM; B=>100 nM−<250 nM; and C=>250 nM.

Chain of purified human, His-tagged PRC2 complex (Q15910 whole entry): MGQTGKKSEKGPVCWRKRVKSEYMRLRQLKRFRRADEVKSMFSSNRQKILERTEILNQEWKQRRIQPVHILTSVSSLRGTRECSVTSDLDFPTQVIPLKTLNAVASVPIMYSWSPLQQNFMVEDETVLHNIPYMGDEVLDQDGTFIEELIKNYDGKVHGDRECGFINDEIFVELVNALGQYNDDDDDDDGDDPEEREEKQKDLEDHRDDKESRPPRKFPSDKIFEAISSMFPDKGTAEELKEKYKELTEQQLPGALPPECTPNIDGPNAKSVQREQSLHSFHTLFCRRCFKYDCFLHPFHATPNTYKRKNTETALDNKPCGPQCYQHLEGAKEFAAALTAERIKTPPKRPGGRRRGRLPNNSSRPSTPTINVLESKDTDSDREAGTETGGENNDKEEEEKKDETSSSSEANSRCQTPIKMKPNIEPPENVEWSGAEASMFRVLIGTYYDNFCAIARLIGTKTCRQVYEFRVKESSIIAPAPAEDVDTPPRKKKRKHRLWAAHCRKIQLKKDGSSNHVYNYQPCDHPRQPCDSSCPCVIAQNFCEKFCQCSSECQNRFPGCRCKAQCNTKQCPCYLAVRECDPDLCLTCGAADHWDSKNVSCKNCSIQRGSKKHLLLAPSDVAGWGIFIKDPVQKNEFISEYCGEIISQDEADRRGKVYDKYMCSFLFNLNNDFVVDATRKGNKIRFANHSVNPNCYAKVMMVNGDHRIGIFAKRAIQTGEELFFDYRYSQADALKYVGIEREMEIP
Chain of purified human, His-tagged PRC2 complex (O75530 whole entry): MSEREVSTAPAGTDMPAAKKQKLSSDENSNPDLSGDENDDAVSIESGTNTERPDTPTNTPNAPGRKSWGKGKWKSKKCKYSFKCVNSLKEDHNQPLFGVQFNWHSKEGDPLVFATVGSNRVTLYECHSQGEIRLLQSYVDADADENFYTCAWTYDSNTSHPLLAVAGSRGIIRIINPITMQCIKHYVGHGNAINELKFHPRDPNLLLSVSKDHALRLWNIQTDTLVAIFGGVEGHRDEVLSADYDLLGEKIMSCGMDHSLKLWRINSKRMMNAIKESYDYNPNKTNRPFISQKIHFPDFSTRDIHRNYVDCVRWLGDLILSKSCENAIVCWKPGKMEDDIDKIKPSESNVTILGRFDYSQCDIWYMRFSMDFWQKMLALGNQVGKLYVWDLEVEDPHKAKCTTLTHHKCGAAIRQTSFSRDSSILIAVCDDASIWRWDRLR
Chain of purified human, His-tagged PRC2 complex (Q15022 whole entry partner): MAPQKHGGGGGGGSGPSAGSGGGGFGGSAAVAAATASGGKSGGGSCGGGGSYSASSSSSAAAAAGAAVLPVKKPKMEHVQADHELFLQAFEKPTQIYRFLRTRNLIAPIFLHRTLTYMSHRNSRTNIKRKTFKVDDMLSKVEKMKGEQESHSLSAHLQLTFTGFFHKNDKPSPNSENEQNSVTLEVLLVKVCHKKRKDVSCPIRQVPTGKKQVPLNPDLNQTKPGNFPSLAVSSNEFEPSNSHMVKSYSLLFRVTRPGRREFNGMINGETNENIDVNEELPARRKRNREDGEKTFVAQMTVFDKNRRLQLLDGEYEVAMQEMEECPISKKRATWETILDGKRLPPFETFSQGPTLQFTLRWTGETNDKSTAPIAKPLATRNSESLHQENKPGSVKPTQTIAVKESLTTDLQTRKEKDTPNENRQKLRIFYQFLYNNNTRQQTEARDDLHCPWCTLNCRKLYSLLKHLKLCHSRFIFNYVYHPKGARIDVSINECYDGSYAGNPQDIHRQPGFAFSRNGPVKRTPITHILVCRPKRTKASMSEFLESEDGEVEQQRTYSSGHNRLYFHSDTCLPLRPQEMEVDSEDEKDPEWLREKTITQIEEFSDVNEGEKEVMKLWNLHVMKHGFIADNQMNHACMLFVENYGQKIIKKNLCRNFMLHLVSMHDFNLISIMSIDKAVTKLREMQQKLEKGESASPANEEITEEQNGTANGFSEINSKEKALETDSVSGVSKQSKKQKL
Chain of purified human, His-tagged PRC2 complex (Q6ZN18 whole entry partner): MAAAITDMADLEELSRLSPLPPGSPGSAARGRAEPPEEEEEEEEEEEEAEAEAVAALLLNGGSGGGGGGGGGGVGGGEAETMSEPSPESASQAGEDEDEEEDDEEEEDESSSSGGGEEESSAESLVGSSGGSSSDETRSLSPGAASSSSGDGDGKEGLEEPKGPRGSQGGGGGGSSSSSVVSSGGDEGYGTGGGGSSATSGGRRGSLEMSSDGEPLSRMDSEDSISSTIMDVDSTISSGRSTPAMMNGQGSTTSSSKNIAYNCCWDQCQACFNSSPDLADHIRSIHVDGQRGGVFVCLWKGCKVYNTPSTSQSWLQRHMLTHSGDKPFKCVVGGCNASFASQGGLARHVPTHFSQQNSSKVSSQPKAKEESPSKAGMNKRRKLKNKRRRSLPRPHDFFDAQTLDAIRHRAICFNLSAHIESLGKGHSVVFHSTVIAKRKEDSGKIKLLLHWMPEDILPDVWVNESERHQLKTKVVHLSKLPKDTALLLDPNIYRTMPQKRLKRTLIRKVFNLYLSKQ
Chain of purified human, His-tagged PRC2 complex (Q09028 whole entry partner): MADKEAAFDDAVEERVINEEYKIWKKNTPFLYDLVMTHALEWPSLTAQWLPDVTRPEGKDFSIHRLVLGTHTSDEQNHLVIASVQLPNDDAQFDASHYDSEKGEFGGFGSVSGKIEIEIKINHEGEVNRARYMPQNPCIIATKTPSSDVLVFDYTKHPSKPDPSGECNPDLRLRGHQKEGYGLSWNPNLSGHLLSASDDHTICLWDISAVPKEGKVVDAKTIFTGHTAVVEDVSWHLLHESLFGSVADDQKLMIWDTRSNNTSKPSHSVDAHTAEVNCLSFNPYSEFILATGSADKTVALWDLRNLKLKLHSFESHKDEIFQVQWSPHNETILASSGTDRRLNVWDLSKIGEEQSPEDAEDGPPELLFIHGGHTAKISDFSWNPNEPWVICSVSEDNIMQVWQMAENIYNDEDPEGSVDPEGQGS

Structure (SMILES) | IC50 [1] [nM] | IC50 [2] [nM] | IC50 [3] [nM]
Cc1cc(-c2cnc(NCc3c(F)ccc4c3CCO4)c3ncncc23)n(C)n1 [Example 59, 5-(1,3-dimethyl-1H-pyrazol-5-yl)-N-((5-fluoro-2,3-dihydrobenzofuran-4-yl)methyl)pyrido[3,4-d]pyrimidin-8-amine] | > 500 | > 500 | > 250
CN(C)Cc1ccc(-c2cnc(NCc3c(F)ccc4c3CCO4)c3cnncc23)cc1F [Example 14] | ≤ 100 | ≤ 250 | < 100
Cc1cc(-c2cnc(NCc3c(F)ccc4c3CCO4)c3cnncc23)n(C)n1 [Example 13] | ≤ 100 | ≤ 250 | < 100
Cc1cc(S(C)(=O)=O)ccc1-c1cnc(NCc2c(F)ccc3c2CCO3)c2c[nH]c(=O)cc12 [Example 40] | 100 to 500 | ≤ 250 | 100 to 250
NS(=O)(=O)c1ccc(-c2cnc(NCc3c(F)ccc4c3CCO4)c3cnncc23)cc1 [Example 1] | ≤ 100 | ≤ 250 | < 100
Cn1nc(C#N)cc1-c1cnc(NCc2c(F)ccc3c2CCO3)c2c[nH]c(=O)cc12 [Example 48] | 100 to 500 | ≤ 250 | < 100
Cc1cc(-c2cnc(NCc3c(F)ccc4c3CCO4)c3cnc(N)cc23)n(C)n1 [Example 50, 4-(1,3-dimethyl-1H-pyrazol-5-yl)-N^1-((5-fluoro-2,3-dihydrobenzofuran-4-yl)methyl)-2,7-naphthyridine-1,6-diamine] | > 500 | > 500 | > 250
CN(C)Cc1ccc(-c2cnc(NCc3c(F)ccc4c3CCO4)c3c[nH]c(=O)cc23)cc1 [Example 38] | 100 to 500 | ≤ 250 | 100 to 250
COCCOc1cc2c(-c3cc(C)nn3C)cnc(NCc3c(F)ccc4c3CCO4)c2cn1 [Example 45] | 100 to 500 | ≤ 250 | 100 to 250
Cn1nc(C#N)cc1-c1cnc(NCc2c(F)ccc3c2CCO3)c2cnccc12 [Example 33, 5-[1-[(5-fluoro-2,3-dihydrobenzofuran-4-yl)methylamino]-2,7-naphthyridin-4-yl]-1-methyl-pyrazole-3-carbonitrile] | > 500 | > 500 | 100 to 250
Cc1cc(CN(C)C)ccc1-c1cnc(NCc2c(F)ccc3c2CCO3)c2cncnc12 [Example 24] | ≤ 100 | ≤ 250 | < 100
Cc1cc(CN(C)C)ccc1-c1cnc(NCc2c(F)ccc3c2CCO3)c2cnncc12 [Example 6] | ≤ 100 | ≤ 250 | < 100
CN(C)S(=O)(=O)c1ccc(-c2cnc(NCc3c(F)ccc4c3CCO4)c3cnncc23)cn1 [Example 10] | ≤ 100 | ≤ 250 | < 100
Cc1cc(-c2cnc(NCc3c(F)ccc4c3CCO4)c3cnc(OCCN(C)C)cc23)n(C)n1 [Example 44] | 100 to 500 | ≤ 250 | > 250
Cc1cc(-c2cnc(NCc3c(F)ccc4c3CCO4)c3cccnc23)n(C)n1 [Example 51, 8-(1,3-dimethyl-1H-pyrazol-5-yl)-N-((5-fluoro-2,3-dihydrobenzofuran-4-yl)methyl)-1,6-naphthyridin-5-amine] | 100 to 500 | ≤ 250 | > 250
Cn1nncc1-c1cnc(NCc2c(F)ccc3c2CCO3)c2c[nH]c(=O)cc12 [Example 39] | > 500 | > 500 | > 250
Cn1nc(C#N)cc1-c1cnc(NCc2c(F)ccc3c2CCO3)c2cnncc12 [Example 16, 5-(5-(((5-fluoro-2,3-dihydrobenzofuran-4-yl)methyl)amino)pyrido[3,4-d]pyridazin-8-yl)-1-methyl-1H-pyrazole-3-carbonitrile] | ≤ 100 | ≤ 250 | < 100
Cc1cc(C(=O)N(C)C)ncc1-c1cnc(NCc2c(F)ccc3c2CCO3)c2cnncc12 [Example 4] | ≤ 100 | ≤ 250 | 100 to 250
Cc1ncccc1-c1cnc(NCc2c(F)ccc3c2CCO3)c2cnncc12 [Example 11] | ≤ 100 | ≤ 250 | < 100
Cc1cc(-c2cnc(NCc3c(F)ccc4c3CCO4)c3cc[nH]c(=O)c23)n(C)n1 [Example 55, 8-(1,3-dimethyl-1H-pyrazol-5-yl)-5-(((5-fluoro-2,3-dihydrobenzofuran-4-yl)methyl)amino)-2,6-naphthyridin-1(2H)-one] | > 500 | ≤ 250 | > 250
CCOc1cc2c(-c3cc(C)nn3C)cnc(NCc3c(F)ccc4c3CCO4)c2cn1 [Example 42, 4-(1,3-dimethyl-1H-pyrazol-5-yl)-6-ethoxy-N-((5-fluoro-2,3-dihydrobenzofuran-4-yl)methyl)-2,7-naphthyridin-1-amine] | – | – | 100 to 250
